Results as given in patent US20260070917A1, “CYCLIN DEPENDENT KINASE DEGRADERS AND METHODS OF USE THEREOF” (Differentiated Therapeutics Inc, priority 2023, published 2026).
Read-outs that look alike come from different tables or passages of the source.

Columns and labels:
Assay type in all cases: cell-based
[1] = target: T1, CCNE1 (Homo sapiens, UniProt P24864); experiment: HiBit Assay Protocol for CCNE1 (HIBIT protein quantification, degradation); details: HEK293-CCNE1-Hibit cells, compound treatment for 6 hours
T1 construct: host or cells: HEK293-CCNE1-Hibit
T1 sequence (P24864 whole entry): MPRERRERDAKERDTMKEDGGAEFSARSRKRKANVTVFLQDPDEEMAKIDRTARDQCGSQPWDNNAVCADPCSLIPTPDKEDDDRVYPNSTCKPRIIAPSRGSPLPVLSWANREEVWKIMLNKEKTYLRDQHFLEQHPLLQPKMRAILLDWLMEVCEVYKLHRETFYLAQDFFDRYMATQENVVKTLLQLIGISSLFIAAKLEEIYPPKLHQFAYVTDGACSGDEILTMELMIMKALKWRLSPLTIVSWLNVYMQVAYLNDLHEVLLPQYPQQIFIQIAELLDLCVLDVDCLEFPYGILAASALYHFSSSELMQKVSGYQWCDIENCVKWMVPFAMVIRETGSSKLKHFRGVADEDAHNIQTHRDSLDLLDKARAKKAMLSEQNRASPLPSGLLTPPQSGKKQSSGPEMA
Outline: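 HEK293 cells expressing HiBiT-tagged CCNE1 were seeded overnight, then treated 6 h with a 3-fold, 10-point compound dilution series. HiBiT levels were read by lytic LgBiT luminescence and normalised to DMSO-only (high) and medium-only (low) controls. DC50 was derived by curve fitting.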

[2] = target: T2, CDK2 (Homo sapiens, UniProt P24941); experiment: HiBit Assay Protocol for CDK2 (HIBIT protein quantification, degradation); details: HEK293-CDK2-Hibit cells, compound treatment for 6 hours; for DC50: ABS DC50
T2 construct: host or cells: HEK293-CDK2-Hibit
Outline: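 HEK293 cells expressing HiBiT-tagged CDK2 were seeded overnight, then treated 6 h with a 3-fold, 10-point compound dilution series. CDK2 levels were read as luminescence after lytic HiBiT/LgBiT detection, normalised to DMSO-only and medium-only controls, and DC50 derived by curve fitting.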

[3] = target: T3, CDK9 (Homo sapiens, UniProt P50750); experiment: HiBit Assay Protocol for CDK9 (HIBIT protein quantification, degradation); details: HEK293-CDK9-Hibit cells, compound treatment for 6 hours; for Dmax: read-out: CDK9 HIBIT Protein Quantification Maximum
T3 construct: host or cells: HEK293-CDK9-Hibit
T3 sequence (P50750 whole entry): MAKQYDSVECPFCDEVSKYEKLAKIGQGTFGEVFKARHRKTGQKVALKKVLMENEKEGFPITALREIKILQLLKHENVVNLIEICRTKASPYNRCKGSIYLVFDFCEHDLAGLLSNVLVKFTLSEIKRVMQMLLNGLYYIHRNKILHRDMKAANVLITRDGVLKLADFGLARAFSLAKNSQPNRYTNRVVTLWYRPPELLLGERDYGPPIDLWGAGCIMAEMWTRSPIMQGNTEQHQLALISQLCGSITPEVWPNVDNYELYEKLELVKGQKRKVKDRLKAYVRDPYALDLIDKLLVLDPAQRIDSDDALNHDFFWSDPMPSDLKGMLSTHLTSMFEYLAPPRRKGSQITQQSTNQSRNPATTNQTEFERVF
Outline: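 HEK293 cells carrying HiBiT-tagged CDK9 treated 6 h with compounds in a 3-fold, 10-point dilution series. CDK9 level read by lytic Nano-Glo HiBiT/LgBiT luminescence and normalized to 0.1% DMSO (high) and medium-only (low) controls. DC50 from curve fitting.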

SMILES	CCNE1 HIBIT Protein Quantification Maximum [1] [%]	CDK2 HIBIT Protein Quantification Maximum [2] [%]	Dmax ([3]; 6 h) [%]	DC50 [2] [nM]	Dmax [3] [%]	DC50 ([3]; ABS DC50) [nM]
O=C1CCC(N2Cc3cc(N4CCC(CN5CCN(c6cccc(S(=O)(=O)N7CCC(Nc8ncc9c(n8)N([C@@H]8CCC[C@@H](O)C8)C(=O)C98CC8)CC7)c6)CC5)CC4)ccc3C2=O)C(=O)N1 (stereo partly drawn) [Compound 119, 3-{5-[4-({4-[3-(4-{7′-[(1R,3R)-3-hydroxycyclohexyl]-6′-oxospiro[cyclopropane-1,5′-pyrrolo [2,3-d]pyrimidin]-2′-ylamino}piperidin-1-ylsulfonyl)phenyl]piperazin-1-yl}methyl)piperidin-1-yl]-1-oxo-3H-isoindol-2-yl}piperidine-2,6-dione]	22	70	–	3	25	–
O=C1CCC(N2Cc3cc(N4CCN(CC5CCN(c6cccc(S(=O)(=O)N7CCC(Nc8ncc9c(n8)N([C@@H]8CCC[C@@H](O)C8)C(=O)C98CC8)CC7)c6)CC5)CC4)ccc3C2=O)C(=O)N1 (stereo partly drawn) [Compound 122, 3-{5-[4-({1-[3-(4-{7′-[(1R,3R)-3-hydroxycyclohexyl]-6′-oxospiro[cyclopropane-1,5′-pyrrolo [2,3-d]pyrimidin]-2′-ylamino}piperidin-1-ylsulfonyl)phenyl]piperidin-4-yl}methyl)piperazin-1-yl]-1-oxo-3H-isoindol-2-yl}piperidine-2,6-dione]	25	79	–	7	22	–
O=C1CCC(N2Cc3cc(N4CCC(CN5CCN(c6cccc(S(=O)(=O)c7ccc(Nc8ncc9c(n8)N([C@@H]8CCC[C@@H](O)C8)C(=O)C98CC8)cc7)c6)CC5)CC4)ccc3C2=O)C(=O)N1 (stereo partly drawn) [Compound 124, 3-{5-[4-({4-[3-(4-{7′-[(1R,3R)-3-hydroxycyclohexyl]-6′-oxospiro [cyclopropane-1,5′-pyrrolo[2,3-d]pyrimidin]-2′-ylamino}benzenesulfonyl)phenyl]piperazin-1-yl}methyl)piperidin-1-yl]-1-oxo-3H-isoindol-2-yl}piperidine-2,6-dione]	48	61	–	6	57	73.6
Cn1c(=O)n(C2CCC(=O)NC2=O)c2cccc(N3CCC(Cn4cc(S(=O)(=O)N5CCC(Nc6ncc7c(n6)N([C@@H]6CCC[C@@H](O)C6)C(=O)C76CC6)CC5)cn4)CC3)c21 (stereo partly drawn) [Compound 130, 3-(4-(4-((4-((4-((7′-((1R,3R)-3-Hydroxycyclohexyl)-6′-oxo-6′,7′-dihydrospiro[cyclopropane-1,5′-pyrrolo[2,3-d]pyrimidin]-2′-yl)amino)piperidin-1-yl)sulfonyl)-1H-pyrazol-1-yl)methyl)piperidin-1-yl)-3-methyl-2-oxo-2,3-dihydro-1H-benzo[d]imidazol-1-yl)piperidine-2,6-dione]	34	76	–	15.8	13	–
O=C1CCC(N2Cc3cc(N4CCC(N5CC(Oc6cccc(S(=O)(=O)N7CCC(Nc8ncc9c(n8)N([C@@H]8CCC[C@@H](O)C8)C(=O)C98CC8)CC7)c6)C5)CC4)ccc3C2=O)C(=O)N1 (stereo partly drawn) [Compound 134, 3-[5-(4-{3-[3-(4-{7′-[(1R,3R)-3-Hydroxycyclohexyl]-6′-oxospiro[cyclopropane-1,5′-pyrrolo[2,3-d]pyrimidin]-2′-ylamino}piperidin-1-ylsulfonyl)phenoxy]azetidin-1-yl}piperidin-1-yl)-1-oxo-3H-isoindol-2-yl]piperidine-2,6-dione]	18	74	–	4.22	31	–
CC1CCCC1N1C(=O)C2(CC2)c2cnc(NC3CCN(S(=O)(=O)N4CC5(CCCN(C6CCCN(c7cccc8c7n(C)c(=O)n8C7CCC(=O)NC7=O)C6)C5)C4)CC3)nc21 (centres unmarked) [Compound 135, 3-{3-Methyl-4-[3-(2-{4-[7′-(2-methylcyclopentyl)-6′-oxospiro[cyclopropane-1,5′-pyrrolo[2,3-d]pyrimidin]-2′-ylamino]piperidin-1-ylsulfonyl}-2,6-diazaspiro[3.5]nonan-6-yl)piperidin-1-yl]-2-oxo-1,3-benzodiazol-1-yl}piperidine-2,6-dione]	8	54	–	16.3	8	–
CC1CCCC1N1C(=O)C2(CC2)c2cnc(NC3CCN(S(=O)(=O)N4CC5(CCCN(c6cccc(-c7cccc8c7n(C)c(=O)n8C7CCC(=O)NC7=O)c6)C5)C4)CC3)nc21 (centres unmarked) [Compound 136, 3-{3-Methyl-4-[3-(2-{4-[7′-(2-methylcyclopentyl)-6′-oxospiro[cyclopropane-1,5′-pyrrolo[2,3-d]pyrimidin]-2′-ylamino]piperidin-1-ylsulfonyl}-2,6-diazaspiro[3.5]nonan-6-yl)phenyl]-2-oxo-1,3-benzodiazol-1-yl}piperidine-2,6-dione]	7	61	–	131	14	–

Continued, in another order:

CCNE1 HIBIT Protein Quantification Maximum [1] [%]	CDK2 HIBIT Protein Quantification Maximum [2] [%]	Dmax ([3]; 6 h) [%]	SMILES	DC50 [2] [nM]	Dmax [3] [%]	DC50 ([3]; ABS DC50) [nM]
23	62	25	O=C1CCC(N2Cc3cc(N4CC5(CN(Cc6cccc(S(=O)(=O)N7CCC(Nc8ncc9c(n8)N([C@@H]8CCC[C@@H](O)C8)C(=O)C98CC8)CC7)c6)C5)C4)ccc3C2=O)C(=O)N1 (some centres unmarked) [Compound 120]	23	–	–
44	79	12	O=C1CCC(N2Cc3cc(N4CCN(Cc5cccc(S(=O)(=O)N6CCC(Nc7ncc8c(n7)N([C@@H]7CCC[C@@H](O)C7)C(=O)C87CC7)CC6)c5)CC4)c(F)cc3C2=O)C(=O)N1 (stereo partly drawn) [Compound 121, 3-(6-fluoro-5-(4-(3-((4-((7′-((1R,3R)-3-hydroxycyclohexyl)-6′-oxo-6′,7′-dihydrospiro [cyclopropane-1,5′-pyrrolo[2,3-d]pyrimidin]-2′-yl)amino)piperidin-1-yl)sulfonyl)benzyl)piperazin-1-yl)-1-oxoisoindolin-2-yl)piperidine-2,6-dione]	47	–	–
47	52	8	O=C1CCC(N2Cc3cc(C4CN(Cc5cccc(S(=O)(=O)N6CCC(Nc7ncc8c(n7)N([C@@H]7CCC[C@@H](O)C7)C(=O)C87CC7)CC6)c5)C4)ccc3C2=O)C(=O)N1 (some centres unmarked) [Compound 123]	92	–	–
46	69	49	O=C1CCC(N2Cc3cc(N4CCC(N5CC(Oc6cccc(S(=O)(=O)c7ccc(Nc8ncc9c(n8)N([C@@H]8CCC[C@@H](O)C8)C(=O)C98CC8)cc7)c6)C5)CC4)ccc3C2=O)C(=O)N1 (some centres unmarked) [Compound 127]	6	–	–
32	32	34	Cn1c(=O)n(C2CCC(=O)NC2=O)c2cccc(C3CCN(CC4CCN(S(=O)(=O)c5ccc(Nc6ncc7c(n6)N([C@@H]6CCC[C@@H](O)C6)C(=O)C76CC6)cc5)CC4)CC3)c21 (some centres unmarked) [Compound 128]	–	–	–
18	51	17	CC1CCCC1N1C(=O)C2(CC2)c2cnc(NC3CCN(S(=O)(=O)N4CCC5(CCN(C(=O)CCCc6ccc7c(c6)n(C)c(=O)n7C6CCC(=O)NC6=O)C5)C4)CC3)nc21 (centres unmarked) [Compound 129]	42	–	–
47	48	7	O=C1CCC(N2Cc3cc(CN4CC(Oc5cccc(S(=O)(=O)N6CCC(Nc7ncc8c(n7)N([C@@H]7CCC[C@@H](O)C7)C(=O)C87CC7)CC6)c5)C4)ccc3C2=O)C(=O)N1 (stereo partly drawn) [Compound 132, 3-[5-({3-[3-(4-{7′-[(1R,3R)-3-Hydroxycyclohexyl]-6′-oxospiro[cyclopropane-1,5′-pyrrolo[2,3-d]pyrimidin]-2′-ylamino}piperidin-1-ylsulfonyl)phenoxy]azetidin-1-yl}methyl)-1-oxo-3H-isoindol-2-yl]piperidine-2,6-dione]	–	–	–
38	52	8	CC1CCCC1N1C(=O)C2(CC2)c2cnc(NC3CCN(S(=O)(=O)N4CC5(CCCN(C6CCN(c7cccc8c7n(C)c(=O)n8C7CCC(=O)NC7=O)C6)C5)C4)CC3)nc21 (centres unmarked) [Compound 137]	3.25	–	–
14	45	3	CC1CCCC1N1C(=O)C2(CC2)c2cnc(NC3CCN(S(=O)(=O)N4CC5(CCCN(CCOc6cccc7c6n(C)c(=O)n7C6CCC(=O)NC6=O)C5)C4)CC3)nc21 (centres unmarked) [Compound 138, 3-{3-Methyl-4-[2-(2-{4-[7′-(2-methylcyclopentyl)-6′-oxospiro[cyclopropane-1,5′-pyrrolo[2,3-d]pyrimidin]-2′-ylamino]piperidin-1-ylsulfonyl}-2,6-diazaspiro[3.5]nonan-6-yl)ethoxy]-2-oxo-1,3-benzodiazol-1-yl}piperidine-2,6-dione]	–	–	–
